In patent US9132140B2, “Boronic acid derivatives and therapeutic uses thereof” (Rempex Pharmaceuticals, Inc., priority 2013, dated 2015):

Assays:
ECLM1019 (VIM, KPC) = type: cell-based, Enterobacter cloacae
Text: (§1) Several strains simultaneously expressing both class A and class B carbapenemases, which were constructed using conjugation, were also included in the panel.

EC1061 (NDM-1, CMY-6) = type: cell-based, Escherichia coli
Text: as §1

EC1065 (IMP-1 CMY-2) = type: cell-based, Escherichia coli
Text: as §1

[1] = system: EC1064 (NDM-1, CMY-6, CTX-M-15); type: cell-based, Escherichia coli
Text: as §1

EC1068 (VIM-1) = type: cell-based, Escherichia coli
Text: as §1

EA1019 (SHV-5, VIM-1) = type: cell-based, Enterobacter aerogenes
Text: as §1

[2] = system: strains of Enterobacteriaceae producing various carbapenemases; experiment: Meropenem/imipenem potentiation MIC, whole panel; type: cell-based; conditions: strains expressing various carbapenemases, incl. class A and class B simultaneously; compound fixed 4 vg/ml
Text: Several strains simultaneously expressing both class A and class B carbapenemases, which were constructed using conjugation, were also included in the panel. […]

KPM1099 (NDM, KPC) = type: cell-based, Klebsiella pneumoniae
Text: as §1

KP1065 (VIM-1, SHV-11) = type: cell-based, Klebsiella pneumoniae
Text: as §1

KP1014 (Vim-1, TEM, SHV) = type: cell-based, Klebsiella pneumoniae
Text: as §1

KPM1345 (VIM-1 SHV) = type: cell-based, Klebsiella pneumoniae
Text: as §1

KPM1097 (NDM, KPC) = type: cell-based, Klebsiella pneumoniae
Text: as §1

KP1097 (IMP-1 SHV) = type: cell-based, Klebsiella pneumoniae
Text: as §1

KP1098 (IMP-26 TEM SHV) = type: cell-based, Klebsiella pneumoniae
Text: as §1

KP1064 (KPC TEM SHV) = type: cell-based, Klebsiella pneumoniae
Text: as §1

Compound: Nn1cnnc1S[C@H]1Cc2cccc(C(=O)O)c2OB1O [Compound 14, (R)-3-(4-amino-4H-1,2,4-triazol-3-ylthio)-2-hydroxy-3,4-dihydro-2H-benzo[e][1,2]oxaborinine-8-carboxylic acid]
- Imipenem + 14 MIC (ECLM1019 (VIM, KPC)): X (key: X: MIC of less than 1 μg/mL; Y: MIC of 1 μg/mL to 10 μg/mL; Z: MIC of greater than 10 μg/mL)
- Meropenem + 14 MIC (ECLM1019 (VIM, KPC)): X (key: X: MIC of less than 1 μg/mL; Y: MIC of 1 μg/mL to 10 μg/mL; Z: MIC of greater than 10 μg/mL)
- Imipenem + 14 MIC (EC1061 (NDM-1, CMY-6)): X (key: X: MIC of less than 1 μg/mL; Y: MIC of 1 μg/mL to 10 μg/mL; Z: MIC of greater than 10 μg/mL)
- Meropenem + 14 MIC (EC1061 (NDM-1, CMY-6)): X (key: X: MIC of less than 1 μg/mL; Y: MIC of 1 μg/mL to 10 μg/mL; Z: MIC of greater than 10 μg/mL)
- Imipenem + 14 MIC (EC1065 (IMP-1 CMY-2)): X (key: X: MIC of less than 1 μg/mL; Y: MIC of 1 μg/mL to 10 μg/mL; Z: MIC of greater than 10 μg/mL)
- Meropenem + 14 MIC (EC1065 (IMP-1 CMY-2)): X (key: X: MIC of less than 1 μg/mL; Y: MIC of 1 μg/mL to 10 μg/mL; Z: MIC of greater than 10 μg/mL)
- Imipenem + 14 MIC [1]: X (key: X: MIC of less than 1 μg/mL; Y: MIC of 1 μg/mL to 10 μg/mL; Z: MIC of greater than 10 μg/mL)
- Meropenem + 14 MIC [1]: Y (key: X: MIC of less than 1 μg/mL; Y: MIC of 1 μg/mL to 10 μg/mL; Z: MIC of greater than 10 μg/mL)
- Imipenem + 14 MIC (EC1068 (VIM-1)): X (key: X: MIC of less than 1 μg/mL; Y: MIC of 1 μg/mL to 10 μg/mL; Z: MIC of greater than 10 μg/mL)
- Meropenem + 14 MIC (EC1068 (VIM-1)): X (key: X: MIC of less than 1 μg/mL; Y: MIC of 1 μg/mL to 10 μg/mL; Z: MIC of greater than 10 μg/mL)
- Imipenem + 14 MIC (EA1019 (SHV-5, VIM-1)): Y (key: X: MIC of less than 1 μg/mL; Y: MIC of 1 μg/mL to 10 μg/mL; Z: MIC of greater than 10 μg/mL)
- Meropenem + 14 MIC (EA1019 (SHV-5, VIM-1)): X (key: X: MIC of less than 1 μg/mL; Y: MIC of 1 μg/mL to 10 μg/mL; Z: MIC of greater than 10 μg/mL)
- carbapenem MIC in the presence of compound [2]: significantly reduced
- Imipenem + 14 MIC (KPM1099 (NDM, KPC)): Y (key: X: MIC of less than 1 μg/mL; Y: MIC of 1 μg/mL to 10 μg/mL; Z: MIC of greater than 10 μg/mL)
- Meropenem + 14 MIC (KPM1099 (NDM, KPC)): Y (key: X: MIC of less than 1 μg/mL; Y: MIC of 1 μg/mL to 10 μg/mL; Z: MIC of greater than 10 μg/mL)
- Imipenem + 14 MIC (KP1065 (VIM-1, SHV-11)): X (key: X: MIC of less than 1 μg/mL; Y: MIC of 1 μg/mL to 10 μg/mL; Z: MIC of greater than 10 μg/mL)
- Meropenem + 14 MIC (KP1065 (VIM-1, SHV-11)): Z (key: X: MIC of less than 1 μg/mL; Y: MIC of 1 μg/mL to 10 μg/mL; Z: MIC of greater than 10 μg/mL)
- Imipenem + 14 MIC (KP1014 (Vim-1, TEM, SHV)): X (key: X: MIC of less than 1 μg/mL; Y: MIC of 1 μg/mL to 10 μg/mL; Z: MIC of greater than 10 μg/mL)
- Meropenem + 14 MIC (KP1014 (Vim-1, TEM, SHV)): X (key: X: MIC of less than 1 μg/mL; Y: MIC of 1 μg/mL to 10 μg/mL; Z: MIC of greater than 10 μg/mL)
- Imipenem + 14 MIC (KPM1345 (VIM-1 SHV)): X (key: X: MIC of less than 1 μg/mL; Y: MIC of 1 μg/mL to 10 μg/mL; Z: MIC of greater than 10 μg/mL)
- Meropenem + 14 MIC (KPM1345 (VIM-1 SHV)): X (key: X: MIC of less than 1 μg/mL; Y: MIC of 1 μg/mL to 10 μg/mL; Z: MIC of greater than 10 μg/mL)
- Imipenem + 14 MIC (KPM1097 (NDM, KPC)): X (key: X: MIC of less than 1 μg/mL; Y: MIC of 1 μg/mL to 10 μg/mL; Z: MIC of greater than 10 μg/mL)
- Meropenem + 14 MIC (KPM1097 (NDM, KPC)): X (key: X: MIC of less than 1 μg/mL; Y: MIC of 1 μg/mL to 10 μg/mL; Z: MIC of greater than 10 μg/mL)
- Imipenem + 14 MIC (KP1097 (IMP-1 SHV)): X (key: X: MIC of less than 1 μg/mL; Y: MIC of 1 μg/mL to 10 μg/mL; Z: MIC of greater than 10 μg/mL)
- Meropenem + 14 MIC (KP1097 (IMP-1 SHV)): Y (key: X: MIC of less than 1 μg/mL; Y: MIC of 1 μg/mL to 10 μg/mL; Z: MIC of greater than 10 μg/mL)
- Imipenem + 14 MIC (KP1098 (IMP-26 TEM SHV)): Y (key: X: MIC of less than 1 μg/mL; Y: MIC of 1 μg/mL to 10 μg/mL; Z: MIC of greater than 10 μg/mL)
- Meropenem + 14 MIC (KP1098 (IMP-26 TEM SHV)): Z (key: X: MIC of less than 1 μg/mL; Y: MIC of 1 μg/mL to 10 μg/mL; Z: MIC of greater than 10 μg/mL)
- Imipenem + 14 MIC (KP1064 (KPC TEM SHV)): X (key: X: MIC of less than 1 μg/mL; Y: MIC of 1 μg/mL to 10 μg/mL; Z: MIC of greater than 10 μg/mL)
- Meropenem + 14 MIC (KP1064 (KPC TEM SHV)): Y (key: X: MIC of less than 1 μg/mL; Y: MIC of 1 μg/mL to 10 μg/mL; Z: MIC of greater than 10 μg/mL)
